# Test results as given in paper PMC9851200, “Multiparameter phenotypic screening for endogenous TFEB and TFE3 translocation identifies novel chemical series modulating lysosome function” (Autophagy, 2022).
# Read-outs that look alike come from different tables or passages of the source.
# Columns and labels:
# Conditions in all cases: PKIS2 primary screening
# endogenous TFEB = experiment: TFEB nuclear translocation, immunocytochemistry high-content imaging; assay type: cell-based
# endogenous TFE3 = experiment: TFE3 nuclear translocation, immunocytochemistry high-content imaging; assay type: cell-based
# SH-SY5Y cells [1] = test system: SH-SY5Y cells; also: reference of the scale not given here
# SH-SY5Y cells [2] = experiment: AK (adenylate kinase) release ToxiLight cytotoxicity assay; also: reference of the scale not given here
# SH-SY5Y cells [3] = experiment: Nuclear count from microscopy images (cellular growth and toxicity); also: reference of the scale not given here
SMILES,TFEB % (endogenous TFEB) [%],TFE3 % (endogenous TFE3) [%],DQ Intensity (SH-SY5Y cells [1]; DQ Red BSA intensity),DQ Spot (SH-SY5Y cells [1]; DQ Red BSA spot count),AK (SH-SY5Y cells [2]),Nuclear Count (SH-SY5Y cells [3]),DQ Intensity (SH-SY5Y cells [1]),DQ Spot (SH-SY5Y cells [1])
N#Cc1ccc(-c2cc(-c3c[nH]nc3-c3ccccn3)ccn2)cc1 [UNC10225072A],2.62,14.52,58.59,75.50,65.14,116.96,,
Fc1ccc(Nc2nccc(-c3c(-c4ccc(Cl)cc4)nn4ncccc34)n2)cc1F [UNC10225073A],10.16,12.07,,,84.83,119.55,129.98,108.87
Cc1ccc(F)c(C(=O)Nc2cccc(-c3nn4ccccc4c3-c3ccnc(Nc4cccc(F)c4)n3)c2)c1F [UNC10225076A],2.83,6.05,,,111.27,118.77,103.33,125.97
O=C(Nc1cccc(-c2nn3ccccc3c2-c2ccnc(Nc3cccc(F)c3)n2)c1)c1c(F)ccc(F)c1Cl [UNC10225081A],11.80,13.17,,,69.78,54.18,135.52,127.57
COc1cc(Nc2ncc3c(C)nc(-c4cc5ccccc5[nH]4)n3n2)cc(OC)c1OC [UNC10225084A],3.01,14.67,,,112.96,82.05,112.41,111.83
Cl.c1ccc(Cn2ncc3cc(Nc4ncnc5ccccc45)ccc32)cc1 [UNC10225085A],4.60,11.00,91.33,107.62,124.83,82.39,,
CC(C)c1nc(-c2ccc(F)c(NS(=O)(=O)c3c(F)cccc3F)c2)c(-c2ccnc(Nc3ccc(N4CCOCC4)nc3)n2)s1 [UNC10225089A],9.24,14.74,,,110.72,76.92,67.64,97.60
CS(=O)(=O)CCNCc1nc(-c2ccc3ncnc(Nc4ccc(OCc5cccc(F)c5)c(Cl)c4)c3c2)cs1.Cl [UNC10225091A],5.83,9.84,63.39,82.01,98.46,114.33,,
CCn1c(-c2c(N)noc2C)nc2cnccc21 [UNC10225095A],3.05,10.37,,,112.40,110.85,103.20,105.92
FC(F)(F)c1ccc(/C=C/c2cncnc2Nc2ccc3[nH]c(Cc4ccccc4)nc3c2)cc1 [UNC10225096A],6.39,12.52,116.48,101.82,102.23,103.45,,
Cc1cccc2c(-c3ccncn3)c(-c3ccc(F)cc3)nn12 [UNC10225097A],5.54,7.36,,,80.54,79.09,92.70,100.21
Cc1c(O)cccc1Nc1ccnc2ccc(C(F)(F)F)cc12.Cl [UNC10225099A],9.28,5.56,122.68,95.32,102.37,127.64,,
Fc1cccc(COc2ccc(Nc3ncnc4sc(-c5ccc[nH]5)cc34)cc2Cl)c1 [UNC10225101A],8.38,15.82,109.09,86.09,123.35,106.63,,
Nc1ncnc2scc(-c3ccc(NC(=O)Cc4cc(F)ccc4F)cc3)c12.O=C(O)C(F)(F)F [UNC10225107A],8.26,9.54,106.01,96.58,124.57,68.49,,
COc1cc(Nc2ccnc3ccc(C(F)(F)F)cc23)cc(OC)c1OC [UNC10225109A],5.89,7.95,93.31,111.66,98.24,107.71,,
CCn1c(-c2cccnc2O)nc2cnccc21 [UNC10225114A],10.78,9.51,,,77.22,103.96,101.68,98.93
CS(=O)(=O)CCNCc1nc(-c2ccc3ncnc(Nc4ccc5c(cnn5Cc5ccccc5)c4)c3c2)cs1.Cl.Cl [UNC10225115A],3.62,17.35,104.52,112.81,99.64,105.59,,
Fc1ccc(-c2nn3cccc(F)c3c2-c2ccncc2)cc1 [UNC10225116A],9.32,11.01,138.45,107.80,96.78,80.47,,
NC(=O)Nc1sc(-c2ccc(F)cc2)cc1C(N)=O [UNC10225118A],7.01,11.46,,,76.60,81.29,77.43,92.26
Cc1ccc(-c2cc(-c3c[nH]nc3-c3ccccn3)ccn2)cc1 [UNC10225125A],3.15,5.68,86.68,93.68,116.20,147.86,,
COc1ccc(COc2cc(-n3cnc4ccccc43)sc2C(N)=O)cc1 [UNC10225127A],4.73,11.50,,,69.30,109.00,119.47,107.75
Cl.Oc1cc(-c2nc(-c3ccccc3)[nH]c2-c2ccncc2)ccc1Cl [UNC10225128B],6.45,11.76,96.34,92.51,91.39,80.05,,
O=c1cc(N2CCOCC2)nc2n(Cc3cccc(Cl)c3)ccn12 [UNC10225131A],5.81,11.28,,,96.90,104.22,103.05,113.71
CCOC(=O)N1CCC(n2cnc(-c3ccc(F)cc3)c2-c2ccnc(N)n2)CC1 [UNC10225132A],10.30,8.29,,,115.58,129.88,90.15,96.37
O=c1cc(N2CCOCC2)nc2n(Cc3cccc(Cl)c3Cl)c3ccccc3n12 [UNC10225136A],3.50,23.04,,,86.64,90.29,100.81,121.13
FC(F)(F)c1ccc(-c2nn3ncccc3c2-c2ccnc(Nc3cccc(C(F)(F)F)c3)n2)cc1 [UNC10225138A],4.73,11.01,,,86.01,92.79,102.80,109.82
CC(C)c1nc(-c2cccc(NS(=O)(=O)c3c(F)cccc3F)c2)c(-c2ccnc(Nc3ccc(N4CCOCC4)nc3)n2)s1.Cl [UNC10225142A],18.86,11.69,,,81.90,103.74,106.42,109.80
